Data taken from US4599352A, “Antineoplastic platinum (IV) complexes and compositions” (priority 1984, dated 1986).

Key:
IP L1210 = experiment: Activity against IP-implanted L1210 leukemia sensitive to cisplatin, 30 day test (Table 3); type: in vivo, Female CD2Fl mice
Method: (§1) Biological properties of the compounds of the present invention were determined following the protocol described in Cancer Chemotherapy Reports, Vol. 3, No. 3, 1972 which report is incorporated herein by reference.
(§2) Other known mechanisms of resistance for other classes of agents, such as gene amplification or target enzyme change or amplication, also need to be explored. The experiments summarized in Table 3 were conducted at the same time against both sublines using the same drug preparations. […] These experiments were repeated in a second laboratory as documented in Table 4. However, in these experiments the animals were held for 60 rather than 30 days to evaluate whether or not long-term survivors are produced after drug treatment in a more challenging setting.
This experiment (A8-00005 3LE31) was conducted at the Southern Research Institute, Birmingham, Ala. under the supervision of Dr. Daniel Griswold. The protocols were the same as those published previously (Geran et al., Cancer Chemotherapy Reports 3: No. 2, 1972 [Attachment 11]). 10^5 cells were implanted intraperitoneally in CD2Fl male mice on Day 0. Drug treatments were given intraperitoneally as single injections at the doses indicated on Days 1, 5 and 9 after tumor implantation. The diluent was saline except for NSC-271674 where 5% sodium bicarbonate was used. All drugs were prepared fresh on the day of injection, and all were administered in solution. Median survival times for both control and drug-treated mice were determined and expressed as a percentage (% T/C). Body weights were determined on Day 5 and expressed as a weight difference (body weight of the drug-treated animals minus that of the control animals in grams) (T-C). The diluent control animals lived a median of 8.4 days and gained 1.9 grams by Day 5 in this experiment. All animals, including Day 30 survivors, were used in the calculation of median survival times. The log10 change in tumor burden refers to the net log change in viable tumor cell population at the end of therapy (Rx) as compared to the start of therapy; e.g., a […] means that there was a […] and a 3 log change means there was a 1000-fold increase in tumor burden at the end of therapy. The tumor burden at the start of therapy was about 6.1×10^5 cells in this experiment.
These experiments (A8-00008 3LE31 and A8-00001 3DP31) were conducted concurrently at the Southern Research Institute, Birmingham, Ala. under the supervision of Dr. Daniel Griswold. See Table 4 for experimental details. The diluent control animals bearing L1210 leukemia lived a median of 8.6 days and gained 1.3 grams by Day 5. […] Female CD2Fl mice were used for these experiments.

IP L1210/Cisplatin = experiment: Activity against IP-implanted L1210/Cisplatin leukemia resistant to cisplatin, 30 day test (Table 3); type: in vivo, Female CD2Fl mice
Method: as §1, §2
This experiment (A8-00005 3LE31) was conducted at the Southern Research Institute, Birmingham, Ala. under the supervision of Dr. Daniel Griswold. The protocols were the same as those published previously (Geran et al., Cancer Chemotherapy Reports 3: No. 2, 1972 [Attachment 11]). 10^5 cells were implanted intraperitoneally in CD2Fl male mice on Day 0. Drug treatments were given intraperitoneally as single injections at the doses indicated on Days 1, 5 and 9 after tumor implantation. The diluent was saline except for NSC-271674 where 5% sodium bicarbonate was used. All drugs were prepared fresh on the day of injection, and all were administered in solution. Median survival times for both control and drug-treated mice were determined and expressed as a percentage (% T/C). Body weights were determined on Day 5 and expressed as a weight difference (body weight of the drug-treated animals minus that of the control animals in grams) (T-C). The diluent control animals lived a median of 8.4 days and gained 1.9 grams by Day 5 in this experiment. All animals, including Day 30 survivors, were used in the calculation of median survival times. The log10 change in tumor burden refers to the net log change in viable tumor cell population at the end of therapy (Rx) as compared to the start of therapy; e.g., a […] means that there was a […] and a 3 log change means there was a 1000-fold increase in tumor burden at the end of therapy. The tumor burden at the start of therapy was about 6.1×10^5 cells in this experiment. […]

For `N.N.[Cl][Pt][Cl]` [Cisplatin, cis-diamminedichloroplatinum (II), reference compound], the “30 Day Survivors/Total” value (IP L1210; 1.25 mg/kg/dose) was 0/6, the “Approx. Log10 Change in Tumor Burden at End of RX” value (shortened to “Approx. Log10 Change”) (IP L1210; 1.25 mg/kg/dose) was ~3.0 log10 and the “Median % T/C” value (IP L1210; 1.25 mg/kg/dose) was 116%. The “30 Day Survivors/Total” value (IP L1210; 5 mg/kg/dose) was 0/6, the “Approx. Log10 Change” value (IP L1210; 5 mg/kg/dose) was ~2.2 log10 and the “Median % T/C” value (IP L1210; 5 mg/kg/dose) was 162%. For the same compound, the “30 Day Survivors/Total” value (IP L1210; 10 mg/kg/dose) was 3/6, the “Approx. Log10 Change” value (IP L1210; 10 mg/kg/dose) was ~-5.9 log10 and the “Median % T/C” value (IP L1210; 10 mg/kg/dose) was 348%. The “30 Day Survivors/Total” value (IP L1210; 20 mg/kg/dose) was 0/6, the “Approx. Log10 Change” value (IP L1210; 20 mg/kg/dose) was ~2.4 log10 and the “Median % T/C” value (IP L1210; 20 mg/kg/dose) was 148%. The “30 Day Survivors/Total” value (IP L1210/Cisplatin; 1.25 mg/kg/dose) was 0/6, the “Approx. Log10 Change” value (IP L1210/Cisplatin; 1.25 mg/kg/dose) was ~3.0 log10 and the “Median % T/C” value (IP L1210/Cisplatin; 1.25 mg/kg/dose) was 104%. The “30 Day Survivors/Total” value (IP L1210/Cisplatin; 5 mg/kg/dose) was 0/6, the “Approx. Log10 Change” value (IP L1210/Cisplatin; 5 mg/kg/dose) was ~3.1 log10 and the “Median % T/C” value (IP L1210/Cisplatin; 5 mg/kg/dose) was 101%. For the same compound, the “30 Day Survivors/Total” value (IP L1210/Cisplatin; 10 mg/kg/dose) was 0/6, the “Approx. Log10 Change” value (IP L1210/Cisplatin; 10 mg/kg/dose) was ~2.9 log10 and the “Median % T/C” value (IP L1210/Cisplatin; 10 mg/kg/dose) was 108%. For the same compound, the “30 Day Survivors/Total” value (IP L1210/Cisplatin; 20 mg/kg/dose) was 0/6, the “Median % T/C” value (IP L1210/Cisplatin; 20 mg/kg/dose) was 86% and the “Activity against L1210/cisplatin” value (IP L1210/Cisplatin; mouse, in vivo) was “refractory”.
For `[Cl][Pt]1([Cl])([Cl])([Cl])[NH]C2CCCCC2[NH]1` (stereo not drawn) [trans (d, l), (d,l)-Tetrachloro-trans-1,2-cyclohexanediamine platinum (IV)], the “30 Day Survivors/Total” value (IP L1210; 1 mg/kg/dose) was 0/6, the “Approx. Log10 Change” value (IP L1210; 1 mg/kg/dose) was ~2.8 log10 and the “Median % T/C” value (IP L1210; 1 mg/kg/dose) was 125%. The “30 Day Survivors/Total” value (IP L1210; 2 mg/kg/dose) was 0/6, the “Approx. Log10 Change” value (IP L1210; 2 mg/kg/dose) was ~2.4 log10 and the “Median % T/C” value (IP L1210; 2 mg/kg/dose) was 151%. The “30 Day Survivors/Total” value (IP L1210; 4 mg/kg/dose) was 2/6, the “Approx. Log10 Change” value (IP L1210; 4 mg/kg/dose) was ~-1.5 log10 and the “Median % T/C” value (IP L1210; 4 mg/kg/dose) was 212%. The “30 Day Survivors/Total” value (IP L1210; 8 mg/kg/dose) was 3/6, the “Approx. Log10 Change” value (IP L1210; 8 mg/kg/dose) was ~-5.9 log10 and the “Median % T/C” value (IP L1210; 8 mg/kg/dose) was 348%. The “30 Day Survivors/Total” value (IP L1210; 16 mg/kg/dose) was 1/6, the “Median % T/C” value (IP L1210; 16 mg/kg/dose) was 143% and the “30 Day Survivors/Total” value (IP L1210/Cisplatin; 1 mg/kg/dose) was 0/6. For the same compound, the “Approx. Log10 Change” value (IP L1210/Cisplatin; 1 mg/kg/dose) was ~2.8 log10, the “Median % T/C” value (IP L1210/Cisplatin; 1 mg/kg/dose) was 115% and the “30 Day Survivors/Total” value (IP L1210/Cisplatin; 2 mg/kg/dose) was 0/6. The “Approx. Log10 Change” value (IP L1210/Cisplatin; 2 mg/kg/dose) was ~2.8 log10, the “Median % T/C” value (IP L1210/Cisplatin; 2 mg/kg/dose) was 118% and the “30 Day Survivors/Total” value (IP L1210/Cisplatin; 4 mg/kg/dose) was 2/6. For the same compound, the “Approx. Log10 Change” value (IP L1210/Cisplatin; 4 mg/kg/dose) was ~-3.4 log10, the “Median % T/C” value (IP L1210/Cisplatin; 4 mg/kg/dose) was 225% and the “30 Day Survivors/Total” value (IP L1210/Cisplatin; 8 mg/kg/dose) was 4/6. The “Approx. Log10 Change” value (IP L1210/Cisplatin; 8 mg/kg/dose) was ~-5.9 log10, the “Median % T/C” value (IP L1210/Cisplatin; 8 mg/kg/dose) was 322% and the “30 Day Survivors/Total” value (IP L1210/Cisplatin; 16 mg/kg/dose) was 1/6. The “Median % T/C” value (IP L1210/Cisplatin; 16 mg/kg/dose) was 110%.
With “Tetrachloro-cis-1,2-cyclohexanediamine platinum (IV)” the “30 Day Survivors/Total” value (IP L1210; 1 mg/kg/dose) was 0/6, the “Approx. Log10 Change” value (IP L1210; 1 mg/kg/dose) was ~2.8 log10 and the “Median % T/C” value (IP L1210; 1 mg/kg/dose) was 125%. The “30 Day Survivors/Total” value (IP L1210; 2 mg/kg/dose) was 0/6, the “Approx. Log10 Change” value (IP L1210; 2 mg/kg/dose) was ~2.6 log10 and the “Median % T/C” value (IP L1210; 2 mg/kg/dose) was 139%. The “30 Day Survivors/Total” value (IP L1210; 4 mg/kg/dose) was 0/6, the “Approx. Log10 Change” value (IP L1210; 4 mg/kg/dose) was ~2.4 log10 and the “Median % T/C” value (IP L1210; 4 mg/kg/dose) was 148%. The “30 Day Survivors/Total” value (IP L1210; 8 mg/kg/dose) was 2/6, the “Approx. Log10 Change” value (IP L1210; 8 mg/kg/dose) was ~-5.9 log10 and the “Median % T/C” value (IP L1210; 8 mg/kg/dose) was 325%. For the same compound, the “30 Day Survivors/Total” value (IP L1210; 16 mg/kg/dose) was 1/6, the “Approx. Log10 Change” value (IP L1210; 16 mg/kg/dose) was ~-5.7 log10 and the “Median % T/C” value (IP L1210; 16 mg/kg/dose) was 267%. The “30 Day Survivors/Total” value (IP L1210/Cisplatin; 1 mg/kg/dose) was 0/6, the “Approx. Log10 Change” value (IP L1210/Cisplatin; 1 mg/kg/dose) was ~3.0 log10 and the “Median % T/C” value (IP L1210/Cisplatin; 1 mg/kg/dose) was 105%. The “30 Day Survivors/Total” value (IP L1210/Cisplatin; 2 mg/kg/dose) was 0/6, the “Approx. Log10 Change” value (IP L1210/Cisplatin; 2 mg/kg/dose) was ~2.9 log10 and the “Median % T/C” value (IP L1210/Cisplatin; 2 mg/kg/dose) was 110%. For the same compound, the “30 Day Survivors/Total” value (IP L1210/Cisplatin; 4 mg/kg/dose) was 0/6, the “Approx. Log10 Change” value (IP L1210/Cisplatin; 4 mg/kg/dose) was ~2.9 log10 and the “Median % T/C” value (IP L1210/Cisplatin; 4 mg/kg/dose) was 111%. For the same compound, the “30 Day Survivors/Total” value (IP L1210/Cisplatin; 8 mg/kg/dose) was 0/6, the “Approx. Log10 Change” value (IP L1210/Cisplatin; 8 mg/kg/dose) was ~2.4 log10 and the “Median % T/C” value (IP L1210/Cisplatin; 8 mg/kg/dose) was 138%. The “30 Day Survivors/Total” value (IP L1210/Cisplatin; 16 mg/kg/dose) was 3/6, the “Approx. Log10 Change” value (IP L1210/Cisplatin; 16 mg/kg/dose) was ~-5.9 log10 and the “Median % T/C” value (IP L1210/Cisplatin; 16 mg/kg/dose) was 322%.
